Here are results for twelve compounds from ChEMBL document CHEMBL5291721, “A preclinical secondary pharmacology resource illuminates target-adverse drug reaction associations of marketed drugs” (Nat Commun, 2023).

The target of assay [1] is T1, Androgen receptor (Rattus norvegicus, UniProt P15207).
T1 sequence (P15207 whole entry): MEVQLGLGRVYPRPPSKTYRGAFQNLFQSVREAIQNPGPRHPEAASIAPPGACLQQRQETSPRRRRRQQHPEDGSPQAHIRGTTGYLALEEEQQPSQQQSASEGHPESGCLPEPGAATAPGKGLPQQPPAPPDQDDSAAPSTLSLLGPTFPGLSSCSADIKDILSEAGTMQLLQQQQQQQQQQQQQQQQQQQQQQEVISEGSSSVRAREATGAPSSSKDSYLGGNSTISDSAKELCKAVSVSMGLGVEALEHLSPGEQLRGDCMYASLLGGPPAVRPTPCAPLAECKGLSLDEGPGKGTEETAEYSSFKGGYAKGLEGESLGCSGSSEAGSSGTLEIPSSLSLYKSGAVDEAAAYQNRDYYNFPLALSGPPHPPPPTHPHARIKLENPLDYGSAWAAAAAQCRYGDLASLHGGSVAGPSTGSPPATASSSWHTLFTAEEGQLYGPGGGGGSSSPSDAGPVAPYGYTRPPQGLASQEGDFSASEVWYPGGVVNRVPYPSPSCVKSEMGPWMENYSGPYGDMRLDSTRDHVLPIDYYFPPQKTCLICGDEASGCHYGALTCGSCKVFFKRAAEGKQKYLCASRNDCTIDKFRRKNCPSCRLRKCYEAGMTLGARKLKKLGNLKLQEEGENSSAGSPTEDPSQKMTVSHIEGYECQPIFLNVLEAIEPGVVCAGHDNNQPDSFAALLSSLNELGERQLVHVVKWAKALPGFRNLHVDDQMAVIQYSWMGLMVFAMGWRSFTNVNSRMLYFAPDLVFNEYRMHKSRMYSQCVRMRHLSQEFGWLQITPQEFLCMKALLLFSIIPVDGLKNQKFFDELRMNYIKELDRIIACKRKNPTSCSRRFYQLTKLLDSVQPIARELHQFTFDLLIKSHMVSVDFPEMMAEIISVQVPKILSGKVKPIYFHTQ

The target in assay [2] is Histamine H2 receptor (Homo sapiens, UniProt P25021).
For assay [3], the target named is 5-hydroxytryptamine receptor 2B (Homo sapiens, UniProt P41595).
Assay [4] deals with T2, Muscarinic acetylcholine receptor M2 (Homo sapiens, UniProt P08172).
T2 sequence (P08172 whole entry): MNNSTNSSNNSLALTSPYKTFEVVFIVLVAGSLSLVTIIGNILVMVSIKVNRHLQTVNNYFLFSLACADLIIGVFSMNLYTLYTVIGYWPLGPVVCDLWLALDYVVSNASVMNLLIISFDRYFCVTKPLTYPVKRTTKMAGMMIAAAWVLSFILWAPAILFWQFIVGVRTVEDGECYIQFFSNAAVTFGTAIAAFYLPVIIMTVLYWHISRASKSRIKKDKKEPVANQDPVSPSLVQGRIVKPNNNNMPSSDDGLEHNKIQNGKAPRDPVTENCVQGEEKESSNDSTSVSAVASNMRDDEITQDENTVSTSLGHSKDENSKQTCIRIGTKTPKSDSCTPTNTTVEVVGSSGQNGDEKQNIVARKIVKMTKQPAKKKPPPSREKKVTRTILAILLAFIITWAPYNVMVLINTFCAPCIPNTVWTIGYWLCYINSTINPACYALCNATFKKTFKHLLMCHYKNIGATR

The target of assay [5] is 5-hydroxytryptamine receptor 2A (Homo sapiens, UniProt P28223).
Assay [6] has as its target Cannabinoid receptor 1 (Homo sapiens, UniProt P21554). The format is functional.
The target in assay [7] is T3, D(4) dopamine receptor (Homo sapiens, UniProt P21917).
T3 sequence (P21917 whole entry): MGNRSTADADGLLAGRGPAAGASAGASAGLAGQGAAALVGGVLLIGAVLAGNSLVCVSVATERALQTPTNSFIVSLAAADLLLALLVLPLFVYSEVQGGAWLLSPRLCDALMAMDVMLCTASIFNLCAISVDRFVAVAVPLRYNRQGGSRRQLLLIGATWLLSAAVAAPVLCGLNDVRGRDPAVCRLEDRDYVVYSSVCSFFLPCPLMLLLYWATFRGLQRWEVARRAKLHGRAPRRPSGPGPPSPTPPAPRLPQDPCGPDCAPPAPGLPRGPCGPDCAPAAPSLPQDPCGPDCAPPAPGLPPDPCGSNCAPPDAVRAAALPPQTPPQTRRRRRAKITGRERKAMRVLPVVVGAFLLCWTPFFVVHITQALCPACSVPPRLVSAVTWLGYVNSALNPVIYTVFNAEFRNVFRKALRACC

Assay [8] concerns the target 5-hydroxytryptamine receptor 6 (Homo sapiens, UniProt P50406).
The target of assay [9] is 5-hydroxytryptamine receptor 7 (Homo sapiens, UniProt P34969).
Assay [10] deals with T4, Alpha-1A adrenergic receptor (Homo sapiens, UniProt P35348).
T4 sequence (P35348 whole entry): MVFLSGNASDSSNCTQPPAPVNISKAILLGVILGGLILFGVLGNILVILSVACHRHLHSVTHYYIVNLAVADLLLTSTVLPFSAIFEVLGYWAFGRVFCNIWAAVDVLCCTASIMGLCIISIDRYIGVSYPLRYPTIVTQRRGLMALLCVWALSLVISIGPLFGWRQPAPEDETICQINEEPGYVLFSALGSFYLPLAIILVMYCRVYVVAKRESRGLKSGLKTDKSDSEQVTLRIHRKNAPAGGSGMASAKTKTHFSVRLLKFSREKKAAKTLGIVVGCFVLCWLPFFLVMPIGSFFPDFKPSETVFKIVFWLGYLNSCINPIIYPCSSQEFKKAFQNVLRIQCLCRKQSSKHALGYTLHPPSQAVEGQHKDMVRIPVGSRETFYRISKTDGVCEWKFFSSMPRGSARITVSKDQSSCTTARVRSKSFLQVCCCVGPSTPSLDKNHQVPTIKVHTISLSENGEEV

In assay [11] the target is Estrogen receptor beta (Homo sapiens, UniProt Q92731).

Structures are written as SMILES. Bounds are passed on as bounds.
Also: assay procedure not described here.

Sequence of Estrogen receptor beta (Q92731 whole entry): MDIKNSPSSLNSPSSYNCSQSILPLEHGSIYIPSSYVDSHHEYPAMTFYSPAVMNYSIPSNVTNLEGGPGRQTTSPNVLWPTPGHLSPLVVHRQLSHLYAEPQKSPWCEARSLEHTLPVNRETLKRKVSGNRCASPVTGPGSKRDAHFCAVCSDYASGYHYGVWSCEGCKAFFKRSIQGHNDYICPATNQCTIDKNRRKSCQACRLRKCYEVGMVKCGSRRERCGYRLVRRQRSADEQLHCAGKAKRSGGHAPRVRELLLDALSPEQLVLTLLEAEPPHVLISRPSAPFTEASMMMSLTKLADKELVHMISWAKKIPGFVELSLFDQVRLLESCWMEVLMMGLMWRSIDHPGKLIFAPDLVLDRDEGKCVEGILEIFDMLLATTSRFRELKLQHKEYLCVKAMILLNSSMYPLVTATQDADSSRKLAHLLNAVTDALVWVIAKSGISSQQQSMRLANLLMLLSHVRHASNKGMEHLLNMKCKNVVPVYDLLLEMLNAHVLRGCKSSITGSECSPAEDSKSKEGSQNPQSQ
Sequence of Histamine H2 receptor (P25021 whole entry): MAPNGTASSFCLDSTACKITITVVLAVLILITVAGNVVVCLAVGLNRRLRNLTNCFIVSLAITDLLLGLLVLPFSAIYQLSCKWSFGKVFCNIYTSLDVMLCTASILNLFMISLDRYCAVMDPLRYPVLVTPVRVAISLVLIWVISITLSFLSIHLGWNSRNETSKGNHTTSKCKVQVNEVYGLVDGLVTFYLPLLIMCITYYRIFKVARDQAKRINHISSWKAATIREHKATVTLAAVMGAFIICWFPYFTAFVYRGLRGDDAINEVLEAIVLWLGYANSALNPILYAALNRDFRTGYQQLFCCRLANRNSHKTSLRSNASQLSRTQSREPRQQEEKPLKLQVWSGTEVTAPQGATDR
Sequence of 5-hydroxytryptamine receptor 2A (P28223 whole entry): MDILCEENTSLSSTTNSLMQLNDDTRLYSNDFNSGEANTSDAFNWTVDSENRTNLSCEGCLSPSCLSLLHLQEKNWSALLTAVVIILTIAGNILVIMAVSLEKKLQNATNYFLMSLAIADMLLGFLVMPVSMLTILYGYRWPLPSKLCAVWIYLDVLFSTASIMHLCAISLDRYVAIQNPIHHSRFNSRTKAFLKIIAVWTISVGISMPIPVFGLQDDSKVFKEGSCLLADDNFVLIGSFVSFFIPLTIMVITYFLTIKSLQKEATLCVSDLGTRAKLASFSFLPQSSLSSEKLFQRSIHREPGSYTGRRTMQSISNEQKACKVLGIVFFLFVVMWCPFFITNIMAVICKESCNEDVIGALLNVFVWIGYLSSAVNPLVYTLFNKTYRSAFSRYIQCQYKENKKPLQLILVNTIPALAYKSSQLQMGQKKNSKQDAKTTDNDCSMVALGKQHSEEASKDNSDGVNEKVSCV
Sequence of 5-hydroxytryptamine receptor 6 (P50406 whole entry): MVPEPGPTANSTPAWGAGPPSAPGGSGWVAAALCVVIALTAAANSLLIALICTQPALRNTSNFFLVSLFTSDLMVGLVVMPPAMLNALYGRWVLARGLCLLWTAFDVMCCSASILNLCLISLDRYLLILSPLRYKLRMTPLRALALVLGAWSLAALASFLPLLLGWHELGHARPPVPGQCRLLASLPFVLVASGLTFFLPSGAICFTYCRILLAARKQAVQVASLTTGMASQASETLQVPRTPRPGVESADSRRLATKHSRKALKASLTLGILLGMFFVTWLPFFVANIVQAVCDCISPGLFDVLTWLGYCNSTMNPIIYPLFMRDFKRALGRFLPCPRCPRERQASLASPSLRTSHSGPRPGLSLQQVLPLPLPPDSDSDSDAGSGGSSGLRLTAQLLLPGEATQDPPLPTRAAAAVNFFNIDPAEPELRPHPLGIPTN
Sequence of 5-hydroxytryptamine receptor 2B (P41595 whole entry): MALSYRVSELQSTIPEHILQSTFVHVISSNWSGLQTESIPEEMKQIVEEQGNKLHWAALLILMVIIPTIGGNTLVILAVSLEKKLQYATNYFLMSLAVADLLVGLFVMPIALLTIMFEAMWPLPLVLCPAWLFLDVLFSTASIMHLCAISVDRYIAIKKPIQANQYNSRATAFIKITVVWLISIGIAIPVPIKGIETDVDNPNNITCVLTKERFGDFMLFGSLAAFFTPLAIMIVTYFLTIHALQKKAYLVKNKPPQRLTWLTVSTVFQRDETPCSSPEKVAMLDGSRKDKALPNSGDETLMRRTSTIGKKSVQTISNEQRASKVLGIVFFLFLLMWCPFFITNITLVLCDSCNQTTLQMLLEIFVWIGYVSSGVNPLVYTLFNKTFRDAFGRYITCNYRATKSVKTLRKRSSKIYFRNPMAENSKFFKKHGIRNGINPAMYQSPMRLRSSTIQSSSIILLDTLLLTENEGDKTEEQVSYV
Sequence of Cannabinoid receptor 1 (P21554 whole entry): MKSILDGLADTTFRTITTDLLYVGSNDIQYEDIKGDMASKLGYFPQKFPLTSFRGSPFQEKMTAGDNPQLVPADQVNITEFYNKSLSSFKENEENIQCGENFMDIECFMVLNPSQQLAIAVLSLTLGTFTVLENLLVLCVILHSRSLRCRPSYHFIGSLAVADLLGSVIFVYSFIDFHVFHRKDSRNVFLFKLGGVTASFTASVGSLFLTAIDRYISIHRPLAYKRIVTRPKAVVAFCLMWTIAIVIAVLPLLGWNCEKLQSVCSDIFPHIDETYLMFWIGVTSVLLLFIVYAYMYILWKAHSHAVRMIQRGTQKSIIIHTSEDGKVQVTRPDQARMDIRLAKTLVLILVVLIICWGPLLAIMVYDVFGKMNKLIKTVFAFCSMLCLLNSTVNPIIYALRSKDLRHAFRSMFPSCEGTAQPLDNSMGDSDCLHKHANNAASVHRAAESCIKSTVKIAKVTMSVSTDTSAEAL
Sequence of 5-hydroxytryptamine receptor 7 (P34969 whole entry): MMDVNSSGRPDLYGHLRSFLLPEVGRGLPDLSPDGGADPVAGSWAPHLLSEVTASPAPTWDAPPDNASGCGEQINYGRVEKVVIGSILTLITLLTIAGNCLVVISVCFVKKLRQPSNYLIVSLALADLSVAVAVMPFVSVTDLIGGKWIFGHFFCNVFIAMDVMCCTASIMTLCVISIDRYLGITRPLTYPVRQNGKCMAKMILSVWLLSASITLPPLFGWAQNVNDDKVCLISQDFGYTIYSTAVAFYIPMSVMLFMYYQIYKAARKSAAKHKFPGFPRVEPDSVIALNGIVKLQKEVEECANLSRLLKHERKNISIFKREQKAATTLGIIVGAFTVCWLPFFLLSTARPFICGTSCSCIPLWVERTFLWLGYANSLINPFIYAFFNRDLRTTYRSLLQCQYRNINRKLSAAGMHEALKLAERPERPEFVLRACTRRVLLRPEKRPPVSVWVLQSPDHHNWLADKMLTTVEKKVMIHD

The term AC50 denotes the concentration at which the activity in the assay is half-maximal. Turning to `CC(=O)N[C@H]1[C@H]([C@H](O)[C@H](O)CO)OC(C(=O)O)=C[C@@H]1N=C(N)N` [ZANAMIVIR], in [1], the AC50 is more than 30 µM.
For the compound `CC(C)(N)Cc1ccc(Cl)cc1` [CHLORPHENTERMINE], the AC50 in assay [2] was more than 10 µM; in assay [3], 3 µM; in assay [4] it was more than 10 µM; in assay [5], 9.06 µM.
Take `O=P(O)(O)C(O)(Cc1cccnc1)P(=O)(O)O` [RISEDRONIC ACID]: the AC50 in assay [6], in assay [7], in [2], in assay [3], in assay [8] and in [9] was more than 10 µM each time. For the same compound, the AC50 in [10] was more than 10 µM.
`CC(C)NCC1CCc2cc(CO)c([N+](=O)[O-])cc2N1` (stereo not given) [OXAMNIQUINE] returned an AC50 in [1] of more than 10 µM.
Turning to `CN(C)CCCN1c2ccccc2Sc2ccccc21` [PROMAZINE], the AC50 in [6] is more than 10 µM; in [7], 0.551 µM; in assay [11], more than 30 µM; in assay [2] it was 0.111 µM; in assay [3], 0.192 µM; in assay [8] it was 0.242 µM. Further, the AC50 in [9] was 2.16 µM; in assay [4] it was 0.999 µM; in assay [10], 0.0138 µM.
`CC(=O)N(CC(O)CO)c1c(I)c(C(=O)NCC(O)CO)c(I)c(C(=O)NCC(O)CO)c1I` (stereo not given) [IOHEXOL] displayed an AC50 in [5] of more than 10 µM.
As to `O=C1CCC(N2C(=O)c3ccccc3C2=O)C(=O)N1` (stereo not given) [THALIDOMIDE], the AC50 in assay [7] was more than 10 µM; in assay [11], more than 30 µM; in assay [2], more than 10 µM; in [3], more than 10 µM; in [4], more than 10 µM; in assay [10], more than 10 µM.
Consider `CN(C)[C@@H]1C(O)=C(C(N)=O)C(=O)[C@@]2(O)C(O)=C3C(=O)c4c(O)ccc(Cl)c4[C@@H](O)[C@H]3C[C@@H]12` [DEMECLOCYCLINE], for which the AC50 in [1] came to 2.6 µM.
In assay [5], `O=C(O)c1cccc(-c2noc(-c3ccccc3F)n2)c1` gave an AC50 of more than 10 µM.
For the compound `C=C1C[C@@H]2[C@H](CC[C@]3(C)C(=O)CC[C@@H]23)[C@@]2(C)C=CC(=O)C=C12` [EXEMESTANE], the AC50 is more than 30 µM in [11], more than 10 µM in assay [4] and 6.96 µM in assay [5].
Turning to `O=C(Nc1ccccc1)OCC(CN1CCCCC1)OC(=O)Nc1ccccc1` (stereo not given) [DIPERODON], the AC50 is more than 10 µM in [6]; 5.2 µM in [7]; more than 30 µM in assay [11]; more than 10 µM in [2]; 1.96 µM in assay [3]; more than 10 µM in [8]. The half-maximal activity concentration (AC50) in [9], in assay [4], in assay [10] and in assay [5] was more than 10 µM in each case.
`C[N+](C)(C)CCOC(N)=O` [CARBAMOYLCHOLINE]: the AC50 in assay [1] was more than 10 µM.
